Here are results for one substance from PMC9649612, “Molecular docking and biochemical validation of (-)-syringaresinol-4-O-β-D-apiofuranosyl-(1→2)-β-D-glucopyranoside binding to an allosteric site in monoamine transporters” (Frontiers in Pharmacology, 2022).

Bounds are passed on as bounds.

Test [1] has as its target T1, WT-hDAT (Homo sapiens, UniProt Q01959).
T1 construct: expressed in transfected cells; host or cells: HeLa
Description: APP+ transport (uptake) in HeLa cells expressing WT-hDAT. It counts as cell-based. Particulars: WT hDAT; APP+ transport, intact HeLa cells; read-out: SAG IC50. As for the experimental part:
(§1) HeLa cells were cultured in Dulbecco’s Modified Eagle’s Medium supplemented with 10% fetal bovine serum, 100 units/ml penicillin, and 100 μg/ml streptomycin at 37°C in a humidified 5% CO2 incubator. Cells were plated in a 6-well culture plate and grown overnight. Cells at ∼70% confluence were transfected with hSERT, hDAT, or hNET cDNA in pcDNA3.1 by lipofectamine 2000. Transfected cells were incubated for 24 h at 37°C with 5% CO2 and then transferred into a 12-well plate placed with polylysine coated slides. After grown for additional 12–16 h, the cells were assayed for APP^+ or ASP^+ fluorescence image acquisition.
(§2) The cells expressing WT or mutants of hSERT, hDAT, or hNET were wet mounted on polylysine coated glass slides in 12-well plates and applied for the indicated treatments. […] The extent of APP^+ accumulated in the cells was determined by confocal imaging analysis. ASP^+ binding to SERT in the cell membrane was measured with digitonin-permeabilized cells ([Li M. et al., 2022a]). […] After removing excess ASP^+ by rapid washing three times, ASP^+ binding was determined by confocal imaging analysis.
(§3) Images were analyzed using Zen Blue software.
(§4) Nonlinear regression fits of experimental and calculated data were performed with Origin (Origin Lab). […]

Test [2] addresses T2, hNET W559A (S2 site mutant) (Homo sapiens, UniProt P23975, W559A).
T2 construct: expressed in transfected cells; host or cells: HeLa
Description: APP+ transport in HeLa cells expressing hNET mutant W559A. It counts as cell-based. The conditions noted are these: intact HeLa cells, read-out: SAG IC50. As for the experimental part:
(§5) The mutants used for this study were constructed in the WT background carried by the expression plasmids for hSERT, hDAT, or hNET under the control of CMV promotor in pcDNA3.1 vector, respectively. All mutants were generated using the Mut Express II Fast Mutagenesis Kit (Vazyme) and confirmed by full-length DNA sequencing.
(§6) HeLa cells were cultured in Dulbecco’s Modified Eagle’s Medium supplemented with 10% fetal bovine serum, 100 units/ml penicillin, and 100 μg/ml streptomycin at 37°C in a humidified 5% CO2 incubator. Cells were plated in a 6-well culture plate and grown overnight. Cells at ∼70% confluence were transfected with hSERT, hDAT, or hNET cDNA in pcDNA3.1 by lipofectamine 2000. […] After grown for additional 12–16 h, the cells were assayed for APP^+ or ASP^+ fluorescence image acquisition.
as §2
(§7) Images were analyzed using Zen Blue software. […]

Test [3] deals with T3, hSERT Q111N (S2 site mutant) (Homo sapiens, UniProt P31645, Q111N).
T3 construct: expressed in transfected cells; host or cells: HeLa (ATCC CCL-2), transient, pcDNA3.1
Description: APP+ transport in HeLa cells expressing hSERT mutant Q111N. It counts as cell-based. The conditions noted are these: 2 μM APP+ 5 min, intact HeLa cells, read-out: SAG IC50 for transport. As to the method:
as §5, §6, §2, §7

Test [4] deals with T4, hSERT Y95F (S1 site mutant) (Homo sapiens, UniProt P31645, Y95F).
T4 construct: expressed in transfected cells; host or cells: HeLa (ATCC CCL-2), transient, pcDNA3.1
Description: APP+ transport in HeLa cells expressing hSERT mutant Y95F. It counts as cell-based. As for the experimental part: as §5, §6, §2, §7

Test [5] addresses T5, WT-hSERT (Homo sapiens, UniProt P31645).
T5 construct: expressed in transfected cells; host or cells: HeLa (ATCC CCL-2), transient, pcDNA3.1
Description: ASP+ binding in digitonin-permeabilized HeLa cells expressing WT-hSERT. Particulars: 10 μM ASP+ 5 min, 25 μg/ml digitonin-permeabilized HeLa cells, read-out: SAG IC50 for binding. As to the method:
as §1, §2, §3, §4

The target of test [6] is T6, hSERT T497A (S2 site mutant) (Homo sapiens, UniProt P31645, T497A).
T6 construct: expressed in transfected cells; host or cells: HeLa (ATCC CCL-2), transient, pcDNA3.1
Description: APP+ transport in HeLa cells expressing hSERT mutant T497A. Format: cell-based. Particulars: 2 μM APP+ 5 min, intact HeLa cells, read-out: SAG IC50 for transport. As to the method: as §5, §6, §2, §7

For test [7], the target named is T7, hSERT E494Q (S2 site mutant) (Homo sapiens, UniProt P31645, E494Q).
T7 construct: expressed in transfected cells; host or cells: HeLa (ATCC CCL-2), transient, pcDNA3.1
Description: ASP+ binding in digitonin-permeabilized HeLa cells expressing hSERT E494Q. The conditions noted are these: 10 μM ASP+, read-out: SAG IC50 for binding. As to the method:
as §5, §6, §2, §7

T2 sequence (P23975 whole entry W559A): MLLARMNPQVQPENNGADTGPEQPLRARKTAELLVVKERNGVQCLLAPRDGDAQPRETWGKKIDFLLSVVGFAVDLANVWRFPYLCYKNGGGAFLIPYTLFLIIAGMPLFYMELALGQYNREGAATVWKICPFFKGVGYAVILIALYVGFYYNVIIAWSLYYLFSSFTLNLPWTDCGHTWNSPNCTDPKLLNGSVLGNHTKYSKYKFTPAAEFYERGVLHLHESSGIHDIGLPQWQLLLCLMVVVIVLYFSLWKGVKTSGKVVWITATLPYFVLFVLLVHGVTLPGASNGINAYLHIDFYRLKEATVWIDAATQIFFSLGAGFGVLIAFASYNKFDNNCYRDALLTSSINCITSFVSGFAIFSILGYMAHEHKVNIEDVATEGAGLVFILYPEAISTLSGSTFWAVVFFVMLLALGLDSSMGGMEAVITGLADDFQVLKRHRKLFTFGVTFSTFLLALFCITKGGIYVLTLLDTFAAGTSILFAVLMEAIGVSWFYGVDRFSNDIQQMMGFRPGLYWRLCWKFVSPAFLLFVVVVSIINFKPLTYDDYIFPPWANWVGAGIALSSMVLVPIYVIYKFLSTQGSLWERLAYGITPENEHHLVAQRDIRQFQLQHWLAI
T1 sequence (Q01959 whole entry): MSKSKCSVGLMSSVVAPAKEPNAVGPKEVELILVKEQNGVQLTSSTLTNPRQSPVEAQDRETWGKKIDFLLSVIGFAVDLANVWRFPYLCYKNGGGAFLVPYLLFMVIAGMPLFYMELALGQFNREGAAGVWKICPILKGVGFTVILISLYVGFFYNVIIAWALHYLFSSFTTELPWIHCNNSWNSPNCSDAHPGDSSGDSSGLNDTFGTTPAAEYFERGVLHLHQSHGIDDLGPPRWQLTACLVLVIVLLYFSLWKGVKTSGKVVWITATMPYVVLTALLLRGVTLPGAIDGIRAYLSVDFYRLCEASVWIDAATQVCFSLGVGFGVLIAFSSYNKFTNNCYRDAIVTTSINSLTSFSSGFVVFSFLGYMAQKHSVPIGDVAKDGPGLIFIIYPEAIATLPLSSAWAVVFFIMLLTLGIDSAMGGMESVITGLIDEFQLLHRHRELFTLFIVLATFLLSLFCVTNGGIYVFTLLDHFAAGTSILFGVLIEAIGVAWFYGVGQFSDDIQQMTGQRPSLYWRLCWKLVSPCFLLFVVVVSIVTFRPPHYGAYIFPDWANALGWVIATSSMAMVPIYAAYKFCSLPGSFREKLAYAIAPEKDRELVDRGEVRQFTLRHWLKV

On to “(-)-Syringaresinol-4-O-β-D-apiofuranosyl-(1→2)-β-D-glucopyranoside [SAG]”, for which the IC50 in test [1] is 31.9 ± 2.8 µM; in test [2], over 1000 µM; in test [3] it was 19.1 ± 2.2 µM; in test [4] (hSERT Y95F (S1), 2 μM APP+ 5 min, intact HeLa cells, read-out: SAG IC50 for transport) it was 4.45 ± 0.17 µM; in test [5] it was 7.88 ± 0.35 µM; in test [6], 111 ± 2 µM. Moreover, the IC50 in test [7] is 192 ± 16 µM. For the same substance, in test [4] (hSERT Tyr95 to Phe (S1) vs WT-hSERT, APP+ transport), the “Effect of mutation on SAG inhibition potency” value is recorded as “little effect”.
